According to patent US10730857B2, “Benzocyanine compounds” (Pierce Biotechnology, Inc., priority 2011, dated 2020):

Legend:
streptavidin (SA) = streptavidin (SA) (Streptomyces avidinii, UniProt P22629); test: Labeling efficiency (degree of labeling) of streptavidin
Procedure: Inventive and commercial compounds, each as the NHS ester, were conjugated to goat anti-mouse (GAM) antibodies, goat anti-rabbit (GAR) antibodies, and streptavidin (SA). GAM, GAR, and SA, at a concentration of 10 mg/ml in phosphate buffered saline (PBS), were dialyzed against 50 mM borate buffer, pH 8.5. […]
The labeled compounds, also termed dyes or labels, were subjected to Pierce Dye Removal Resin (PDDR) to remove the unlabeled (free) compound; 100 μl of the packed resin was used per mg of protein purified. The purified antibody-labeled dyes were then diluted 1:50 in PBS and scanned for absorbance from 700 nm to 230 nm to determine the protein concentration, and to determine the mole dye to mole protein ratio. Each conjugate was diluted 1:10 in 50% glycerol and heated in the presence of 10 mM dithiothreitol (DTT) for 5 min at 95° C., then separated by electrophoresis on polyacrylamide gels in the presence of sodium dodecyl sulfate (SDS-PAGE). The gels were scanned using the Typhoon 9400 Imager to verify removal of the unconjugated compound. Labeling efficiency was compared, with results showing degree of labeling below.

[1] = Absorbance/emission spectral properties and fluorescence intensity of the dyes; type: physicochemical; settings: 10 μg/ml in PBS buffer pH 7.2, FIG. 1
Procedure: Emission/excitation profiles for inventive and commercial compounds was determined by reconstituting the compounds in DMF at 10 mg/ml and then diluting in PBS buffer pH 7.2 to 10 μg/ml.

lamin B1 in U20S cells = test: Immunofluorescence, rabbit anti-lamin B1, U20S cells, GAR conjugates; type: cell-based
Procedure: The inventive compounds and commercial dye were evaluated for immunofluorescence in a second cell based assay using the following protocol. Frozen U20S cell plates stored at −20° C. were placed overnight at 4° C. Storage buffer (PBS) was removed and the cells were permeabilized for 15 min (100 μl/well) with 0.1% Triton-X100 in 1×PBS buffer. Plates were blocked for 30 min in 2% BSA in 1×PBS-0.1% Trion-X100. Primary antibodies diluted in 2% BSA in 1×PBS-0.1% Trion-X100 were added to the plates (column 1-11; column 12 included only blocker) and incubated five hours at room temperature. Mouse anti-lamin A was added at 2 μg/ml and rabbit anti-lamin B1 was added at 4 μg/ml. After incubation, the antibody solution was removed from the plates and the plates were washed PBS-0.5% Tween-20 (2×100 μl/well). Next, GAM and GAR secondary antibodies labeled with DyLight 680-NHS, DyLight 680B-NHS, 679 Compound 1-NHS, and Cy5.5 Mono Ester were diluted to 4 μg/ml in PBS and incubated with the cells for one hour at room temperature. […] The plates were scanned on ArrayScan Plate Reader for imaging and quantitation.

lamin A in U20S cells = test: Immunofluorescence, mouse anti-lamin A, U20S cells (FIG. 16); type: cell-based
Procedure: The inventive compounds and commercial dye were evaluated for immunofluorescence in a second cell based assay using the following protocol. Frozen U20S cell plates stored at −20° C. were placed overnight at 4° C. Storage buffer (PBS) was removed and the cells were permeabilized for 15 min (100 μl/well) with 0.1% Triton-X100 in 1×PBS buffer. Plates were blocked for 30 min in 2% BSA in 1×PBS-0.1% Trion-X100. Primary antibodies diluted in 2% BSA in 1×PBS-0.1% Trion-X100 were added to the plates (column 1-11; column 12 included only blocker) and incubated five hours at room temperature. Mouse anti-lamin A was added at 2 μg/ml and rabbit anti-lamin B1 was added at 4 μg/ml. After incubation, the antibody solution was removed from the plates and the plates were washed PBS-0.5% Tween-20 (2×100 μl/well). Next, GAM and GAR secondary antibodies labeled with DyLight 680-NHS, DyLight 680B-NHS, 679 Compound 1-NHS, and Cy5.5 Mono Ester were diluted to 4 μg/ml in PBS and incubated with the cells for one hour at room temperature. GAM and GAR conjugated to DyLight 680-NHS, DyLight 680B-NHS, 679 Compound 1-NHS, and Company B Compound at 10× molar excess were diluted to 4 μg/ml in PBS and then serially diluted 1:1 in the plate to the following concentrations: 2 μg/ml, 1 μg/ml, 0.5 μg/ml, 0.25 μg/ml, 0.125 μg/ml and/or 0.0625 μg/ml. The plates were washed 3× with 100 μl/well PBS, and Hoechst stain diluted to 0.1 μg/ml in PBS was added to each well (100 μl/well). The plates were scanned on ArrayScan Plate Reader for imaging and quantitation.

lamin A in A549 cells = test: Immunofluorescence, mouse anti-lamin A, A549 cells (FIG. 15); type: cell-based; settings: GAM conjugates at 4× to 12× molar excess
Procedure: The inventive compounds were evaluated for immunofluorescence in cell based assays using the following protocol. Frozen A549 cell plates stored at −20° C. were placed for 30 min 50° C. Storage buffer (PBS) was removed and the cells were permeabilized for 15 min (100 μl/well) with 0.1% Triton-X100 in 1×PBS buffer. Plates were blocked for 30 min in 2% BSA in 1×PBS-0.1% Trion-X100. Primary antibodies diluted in 2% BSA in 1×PBS-0.1% Trion-X100 were added to the plates (column 1-11; column 12 included only blocker) and incubated […]. Mouse anti-lamin A was added at 1 μg/ml and rabbit anti-lamin B1 was added at 3 μg/ml. After overnight incubation, the antibody solution was removed from the plates and the plates were washed with PBS-0.5% Tween-20 (2×100 μl/well). GAM and GAR secondary antibodies labeled with DyLight 680-NHS, DyLight 680B-NHS, 679 Compound 1-NHS and Company B Compound-NHS were diluted to 4 μg/ml in PBS, added and incubated for one hour at room temperature. The plates were then washed three times with 100 μl/well PBS, and Hoechst stain diluted to 0.1 μg/ml in PBS was added to each well (100 μl/well). The plates were scanned on ArrayScan Plate Reader for imaging and quantitation.

Chain of streptavidin (SA) (P22629 25-183, species assumed): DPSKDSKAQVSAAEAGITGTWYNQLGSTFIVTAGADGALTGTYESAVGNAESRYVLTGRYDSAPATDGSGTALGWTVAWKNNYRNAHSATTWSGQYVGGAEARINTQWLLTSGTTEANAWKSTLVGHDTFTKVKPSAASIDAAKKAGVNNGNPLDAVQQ

COCC[N+]1=C(/C=C/C=C/C=C2/N(CCCCCC(=O)O)c3ccc4c(S(=O)(=O)[O-])cc(S(=O)(=O)[O-])cc4c3C2(C)C)C(C)(CCCS(=O)(=O)[O-])c2c1ccc1c(S(=O)(=O)[O-])cc(S(=O)(=O)[O-])cc21.[Na+].[Na+].[Na+].[Na+] (centres unmarked) [679 Compound 1, 6-((E)-2-((2E,4E)-5-(3-(2-methoxyethyl)-1-methyl-6,8-disulfonato-1-(3-sulfonatopropyl)-1H-benzo[e]indol-3-ium-2-yl)penta-2,4-dien-1-ylidene)-1,1-dimethyl-6,8-disulfonato-1H-benzo[e]indol-3(2H)-yl)hexanoate]
degree of labeling (streptavidin (SA); SA-6X molar excess): 4.0
degree of labeling (streptavidin (SA); SA-8X molar excess): 5.0
Max Abs ([1]; Cary UV spectrophotometer): 679 nm
Max E ([1]; emission, Tecan Safire): 704 nm
Overall fluorescence signal intensity (in words) (lamin B1 in U20S cells; GAR conjugates): about two times higher compared to DyLight 680
S/B (in words) (lamin B1 in U20S cells; GAR labeled at 2×, 3× or 4× molar excess): comparable to each other and to DyLight 680 conjugates
Mean Total Intensity 2X (lamin A in U20S cells; GAM conjugated at 2X molar excess, FIG. 16): 232482
Mean Total Intensity 3X (lamin A in U20S cells; GAM conjugated at 3X molar excess, FIG. 16): 263580
Mean Total Intensity 4X (lamin A in U20S cells; GAM conjugated at 4X molar excess, FIG. 16): 330865
S/B (in words) (lamin A in U20S cells; GAM conjugates at the low molar excesses): comparable to each other and to DyLight 680
performance in immunofluorescence (in words) (lamin A in A549 cells): very similar performance to corresponding DyLight 680B conjugates
